Assay type in all cases: cell-based, human
Data set [1] has as its system interleukin-8 (IL-8) from Caco-2/TC7 cells. In words: Interleukin-8 release by ELISA after IL-1β stimulation. The following applies: IL-1β 2 ng/ml for 24 h, then 24 h treatment at 10 μM (soya milk: equol 10 μM). On the procedure: DMEM culture medium containing DMSO (1%, v/v) or methanol (0.5%, v/v) has been used as negative control. Data are the average of three triplicate experiments. Asterisk indicates meaningful differences (P<0.01) compared to negative control.
For measurement of released interleukin-8 (IL-8) Caco-2/TC7 cells have previously been incubated (24 h) with interleukin-1β and then stimulated for further 24 h with the different preparations. The synthesis of pro-inflammatory IL-8 has been determined by ELISA assay (Bender MedSystems). The quantification has been carried out using a standard curve according to .kit instructions
Interleukin-8 (IL-8) is a member of C—X—C chemokine family and plays a fundamental role in activation of neutrophil cells, thus initiating the inflammatory response. When Caco-2/TC7 cells are subjected to a treatment with inteleukin-1β (2 ng/ml) has been observed a meaningful increment (P<0.001) of IL-8 synthesis (FIG. 7).
A general note: ELISA stands for enzyme-linked immunosorbent assay.

Data set [2] deals with Caco-2/TC7 cells. In words: TEER of Caco-2/TC7 cell layer. The note with it: for TEER of cells stimulated with IFN-γ: IFN-γ 1000 U/ml, 24, 48 and 72 h, soya milk diluted at equol 10 μM. On the procedure:
The incubation has been carried out in the presence of γ-interpheron (IFN-γ) (1000 U/ml (-▪-); IFN-γ and soya milk, obtained from biological soya flour, not fermented (-Δ-) or fermented with the selected mixed starter, diluted at equol final concentration of 10 μM and sterile filtered. (-x-). DMEM culture medium has been used as negative control (-♦-). Data are the average of three triplicate experiments. Asterisk indicates meaningful differences (P<0.01) compared to negative control.
For TEER measurement Caco-2/TC7 cells have been inoculated (7.5×10^4 cell/ml) in a microplate container with 24 […] and a polyethylene filter (0.4 μm pore size). Before the treatment, the cells have been incubated for 21 days at 37° C. […] Integrity of cellular layer then has been determined by means of TEER measurements.
Under culture conditions of this study, Caco-2/TC7 cells develop morphological and functional characteristics of enterocytes, including tight intercellular junctions, integrity thereof being measured by TEER determination. Preliminarily, TEER has been determined in the presence of standard chemical compounds (10-100 μM), fermented OFS soya milk and diluted at equol concentration of 10 μM, or not fermented OFS soya milk. […] Treatments of Caco-2/TC7 cells with INF-γ (1000 U/ml) favoured a remarkable decrease (P<0.003) of TEER value (FIG. 6).

The subject of data set [3] is Caco-2/TC7 cells. In words: Nitric oxide (NO) release, Griess reagent. The following applies: pre-treated 24 h at 10 μM (soya milk: equol 10 μM), then IFN-γ 1000 U/ml + LPS 100 ng/ml for 24 h. On the procedure:
The cells have been pre-treated for 24 h with chemical compounds (10 μM) used as standards (equol, daidzein, genistein and glycitein) and soya milk, obtained from biological soya flour, not fermented or fermented using mixed selected starter, diluted at equol final concentration of 10 μM and sterile filtered. Successively, the cells have been stimulated with γ-interpheron (IFN-γ) (1000 U/ml) and lipopolysaccharide (LPS) (100 ng/ml) for 24 h. DMEM culture medium containing DMSO (1%, v/v) or methanol (0.5%, v/v) has been used as negative control. Data are the average of three triplicate experiments. Asterisk indicates meaningful differences (P<0.01) compared to negative control.
The nitric oxide release (NO) from Caco-2/TC7 cells has been determined by measuring the oxidation products, i.e. nitrite and nitrate. After incubation with the different preparations, the supernatant of cell cultures has been mixed with an equal volume of Griess reagent (1%, p/v, sulfanilic acid in 0.5 M HCl and 0.1%, p/v, N-1-naphthylethylendiamine hydrochloride). After 30 min of incubation at room temp., the absorbance at 540 nm has been measured Nitrite concentration has been determined with reference to standard curve prepared with sodium nitrite.
Preliminarily, Caco-2/TC7 cells have been treated for 24 h at concentration of 10 μM with the OFS fermented soya milk and diluted at equol final concentration of 10 μM or with not fermented soya milk. […] Successively, Caco-2/TC7 cells have been stimulated with INF-γ (1000 U/ml) e LPS (100 ng/ml) per 24 h.

Data set [4] relates to Caco-2/TC7 cells. In words: Neutral Red uptake cytotoxicity assay. The following applies: standard chemical compounds 5-100 μM; vs methanol and DMSO negative control. Here is the method:
Human origin Caco-2 cells (clone TC7) have been cultured in Dulbecco (DMEM) medium, added with bovine foetal serum (10%), not essential amino acids (1%), gentamycin/streptomycin (50 μg/ml), glutamine (2 mM) and 4-2-hydroxyethyl-1-piperazinyl-ethanesulfonic acid (1%) (Di Cagno et al., 2010. Quorum sensing in sourdough Lactobacillus plantarum DC400: induction of plantaricin A (PlnA) under co-cultivation with other lactic acid bacteria and effect of PlnA on bacterial and Caco-2 cells. Proteomics in press). The cells viability has been determined by uptake assay of Neutral Red dye (Balls et al., 1987. Approaches to validation alternative methods in toxicology. In: Goldber A. M. (Ed). N.Y. Academic Press pp. 45-58). After treatment for 24-72 h with the different preparations, the cells have been washed with PBS buffer and incubated for 4 h at 37° C. with Neutral Red solution (33 mg/l). […] Plate reading has been carried out using Novapath reader (Biorad, Hercules, Calif.) (Di Cagno et al., 2010).
With the purpose to test immunomodulating properties of isoflavones-aglicones contained in soya milk produced from biological soya flour (OFS), cytotoxicity against Caco-2/TC7 cells by standard chemical compounds (equol, daidzein, genistein and glycitein) at concentrations of 5-100 μM using Neutral Red (NR) uptake assay, firstly has been evaluated.

The source of these data is patent US20130231291A1, “FERMENTED SOYA BASED MIXTURE COMPRISING ISOFLAVONES- AGLICONES, EQUOL AND LUNASIL, PROCESS FOR THE PREPARATION AND USES THEREOF IN FOOD, MEDICAL AND COSMETIC FIELDS” (priority 2010, published 2013).

Each structure is given as a SMILES string.

For the compound `Oc1ccc([C@H]2COc3cc(O)ccc3C2)cc1` [equol], the IL-8 synthesis entry in data set [1] is on record as “meaningful decrement”. Besides, in data set [2], the “TEER of cells stimulated with IFN-γ” value is given as “trend similar to fermented OFS soya milk”. In addition, the “effects on TEER without IFN-γ” value in data set [2] (equol at 100 μM, 72 h of incubation) was “exception”. The “NO release after IFN-γ and LPS stimulation” value (“NO release” for short) in data set [3] is listed as “inhibited in a marked manner”.
For the compound `O=c1c(-c2ccc(O)cc2)coc2cc(O)cc(O)c12` [genistein], the IL-8 synthesis entry in data set [1] was “did not resulted in (P<0.10) a decrement”. Also, the “TEER of cells stimulated with IFN-γ” value in data set [2] was “trend similar to fermented OFS soya milk”. For the same compound, the “cell proliferation (Neutral Red uptake)” value in data set [4] is recorded as “did not affect significantly cell proliferation”. In data set [3], the “NO release” value is recorded as “considerable inhibition”.
Consider `COc1cc2c(=O)c(-c3ccc(O)cc3)coc2cc1O` [glycitein], for which the IL-8 synthesis entry in data set [1] is “did not resulted in (P<0.10) a decrement”. Further, the “TEER of cells stimulated with IFN-γ” value in data set [2] is “trend similar to fermented OFS soya milk”. Also, the “NO release” value in data set [3] is listed as “considerable inhibition”.
For the compound `O=c1c(-c2ccc(O)cc2)coc2cc(O)ccc12` [daidzein], the IL-8 synthesis entry in data set [1] was “meaningful decrement”. Further, the “TEER of cells stimulated with IFN-γ” value in data set [2] is on record as “has not interfered with the negative effect caused by INF-γ”. In addition, the “NO release” value in data set [3] is “significantly increased”.
